According to patent US11834401B2, “Treating and preventing diseases by modulating cell mechanics” (THE JOHNS HOPKINS UNIVERSITY, priority 2013, dated 2023):

How the values were obtained:
human myosin IIA = molecular target: T1, human myosin IIA (Homo sapiens, UniProt P35579); experiment: In vitro myosin assembly assay; type: biochemical; settings: n=3
T1 construct: human myosin IIA (residues 1722-1960); 6xHis (N); mCherry (N); made in house; host or cells: E. coli BL-21 Star (DE3)
Description: (§1) The sedimentation assays were used to assess myosin II assembly in cells. The assembly assay used purified proteins (N-terminal 6×His tag (SEQ ID NO: 1), fused to the mCherry fluorophore, fused to the assembly domains of Dictyostelium myosin II (residues 1533-1823), human myosin IIA (residues 1722-1960), and human myosin IIB (residues 1729-1976), and 6×His-tagged (SEQ ID NO: 1) fused Dictyostelium 14-3-3). Purified chicken nonmuscle IIB heavy meromyosin (HMM) was used for in vitro motility.
(§2) Bacterial expression plasmids coding for an N-terminal 6×His tag (SEQ ID NO: 1), fused to the mCherry fluorophore, fused to the assembly domains of Dictyostelium myosin II (residues 1533-1823), human myosin IIA (residues 1722-1960), or human myosin IIB (residues 1729-1976) were generated using standard cloning techniques.
(§3) In vitro assembly of myosin was conducted according to the method of Zhou et al, 2010 (Zhou Q et al., 2010), with a number of modifications. The protein concentration for each species in the tube was increased to […] to ensure that the smaller protein was adequately visible by Coomassie Blue staining, and the incubation time and temperature was adjusted to 30 min at the physiological temperature for each myosin species (22° C. for Dictyostelium myosin, 37° C. for human myosins). These temperatures were also used during the centrifugation step.

human myosin IIB = molecular target: T2, human myosin IIB (Homo sapiens, UniProt P35580); experiment: In vitro myosin assembly assay; type: biochemical; settings: n=3
T2 construct: human myosin IIB (residues 1729-1976); 6xHis (N); mCherry (N); made in house; host or cells: E. coli BL-21 Star (DE3)
Description: as §1, §2, §3

myosin II = molecular target: T3, myosin II (Dictyostelium discoideum, UniProt P08799); experiment: Myosin II cortical localization by SIM, TIRF and confocal imaging; type: cell-based
T3 construct: expressed in transfected cells; host or cells: Dictyostelium discoideum myoII null cells rescued with GFP-myosin II
Description: Micropipette aspiration was used for cortical tension and creep response measurements. Confocal imaging was performed on a Zeiss 510 Meta with a 63× (numerical aperture [NA] 1.4) objective (Carl Zeiss, Jena, Germany). Epifluorescence and TIRF imaging was performed in a 22° C. temperature controlled room with an Olympus IX81 microscope using a 40× (NA 1.3) or 60× (NA 1.49) objective and a 1.4× optovar (Olympus, Center Valley, Pa.), as previously described. Image analysis was performed with ImageJ (rsb.info.nih.gov/ij).
Imaging conditions during primary screen are described above. All other image analysis was performed as previously described (Kee Y S, et al., 2012). Cells were transferred from Petri dishes (with 0.1% DMSO incubation in growth media of 4 hrs) to imaging chambers and allowed to adhere for 20 min in growth media with 0.1% DMSO. After the cells adhered, the growth media was replaced with 2-(N-morpholino)ethanesulfonic acid (MES) starvation buffer (50 mM MES, pH 6.8, 2 mM MgCl2, 0.2 mM CaCl2) with 0.1% DMS. Confocal imaging was performed on aZeiss 510 Meta with a 63× (numerical aperture [NA] 1.4) objective (Carl Zeiss, Jena, Germany). Epifluorescence and TIR imaging was performed in a 22° C. temperature controlled room with an Olympus IX81 microscope using a 40× (NA 1.3) or 60× (NA […]) objective and a 1.4× optovar (Olympus, Center Valley, Pa.), as previously described. Image analysis was performed with ImageJ (rsb.info.nih.gov/ij). Many data sets were independently analyzed by multiple investigators.

T3 sequence (P08799 whole entry): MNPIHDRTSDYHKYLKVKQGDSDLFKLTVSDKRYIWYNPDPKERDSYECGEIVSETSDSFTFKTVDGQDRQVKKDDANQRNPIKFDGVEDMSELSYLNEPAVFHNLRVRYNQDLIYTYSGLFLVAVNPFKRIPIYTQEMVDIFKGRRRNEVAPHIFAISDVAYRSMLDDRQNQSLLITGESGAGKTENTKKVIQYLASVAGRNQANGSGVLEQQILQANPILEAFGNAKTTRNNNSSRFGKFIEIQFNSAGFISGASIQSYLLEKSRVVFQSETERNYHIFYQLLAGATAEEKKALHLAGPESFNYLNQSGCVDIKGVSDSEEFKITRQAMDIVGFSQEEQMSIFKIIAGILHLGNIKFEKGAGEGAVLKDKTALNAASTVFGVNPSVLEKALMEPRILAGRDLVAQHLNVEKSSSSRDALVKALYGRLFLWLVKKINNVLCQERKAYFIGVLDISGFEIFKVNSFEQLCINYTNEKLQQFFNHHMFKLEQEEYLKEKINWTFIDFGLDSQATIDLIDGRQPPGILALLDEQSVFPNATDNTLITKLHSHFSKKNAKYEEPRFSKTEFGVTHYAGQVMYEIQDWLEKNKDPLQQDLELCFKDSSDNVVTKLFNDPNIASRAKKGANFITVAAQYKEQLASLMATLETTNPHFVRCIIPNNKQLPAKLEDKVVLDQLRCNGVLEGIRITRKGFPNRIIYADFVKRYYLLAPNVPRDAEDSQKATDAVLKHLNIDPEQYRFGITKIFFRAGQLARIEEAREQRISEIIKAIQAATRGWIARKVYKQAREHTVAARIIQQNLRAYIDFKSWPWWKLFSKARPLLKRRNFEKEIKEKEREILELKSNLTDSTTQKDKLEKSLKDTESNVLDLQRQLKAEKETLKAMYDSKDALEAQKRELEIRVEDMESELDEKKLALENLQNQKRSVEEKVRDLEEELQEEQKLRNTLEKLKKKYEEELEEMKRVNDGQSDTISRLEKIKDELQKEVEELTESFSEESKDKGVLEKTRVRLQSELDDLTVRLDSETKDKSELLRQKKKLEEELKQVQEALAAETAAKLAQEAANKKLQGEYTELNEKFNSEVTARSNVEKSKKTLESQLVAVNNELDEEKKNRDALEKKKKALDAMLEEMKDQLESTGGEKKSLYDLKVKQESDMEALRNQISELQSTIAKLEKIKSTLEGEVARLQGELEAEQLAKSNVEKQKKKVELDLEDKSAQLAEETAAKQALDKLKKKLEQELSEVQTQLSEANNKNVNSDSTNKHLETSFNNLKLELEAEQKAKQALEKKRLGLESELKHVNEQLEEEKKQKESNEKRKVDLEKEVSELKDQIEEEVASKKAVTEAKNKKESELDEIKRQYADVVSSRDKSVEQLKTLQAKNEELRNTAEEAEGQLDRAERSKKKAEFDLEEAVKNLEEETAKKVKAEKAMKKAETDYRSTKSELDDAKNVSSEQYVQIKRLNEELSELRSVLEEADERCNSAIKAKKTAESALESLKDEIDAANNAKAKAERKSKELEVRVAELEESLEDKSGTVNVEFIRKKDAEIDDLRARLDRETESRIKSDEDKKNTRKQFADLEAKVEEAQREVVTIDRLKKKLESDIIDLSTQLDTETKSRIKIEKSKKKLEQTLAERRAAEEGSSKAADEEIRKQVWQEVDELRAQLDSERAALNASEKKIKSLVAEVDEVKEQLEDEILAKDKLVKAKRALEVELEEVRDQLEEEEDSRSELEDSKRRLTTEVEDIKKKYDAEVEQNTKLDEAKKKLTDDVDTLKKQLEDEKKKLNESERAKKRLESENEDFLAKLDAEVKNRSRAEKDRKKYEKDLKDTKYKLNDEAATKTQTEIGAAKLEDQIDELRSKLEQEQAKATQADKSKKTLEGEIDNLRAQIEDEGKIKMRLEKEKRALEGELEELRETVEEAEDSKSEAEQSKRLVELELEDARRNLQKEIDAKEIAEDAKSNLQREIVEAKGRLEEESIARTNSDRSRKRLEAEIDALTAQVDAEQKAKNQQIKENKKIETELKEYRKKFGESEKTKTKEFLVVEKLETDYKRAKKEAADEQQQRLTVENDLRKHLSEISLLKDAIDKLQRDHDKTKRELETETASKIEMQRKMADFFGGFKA
T2 sequence (P35580 1729-1976): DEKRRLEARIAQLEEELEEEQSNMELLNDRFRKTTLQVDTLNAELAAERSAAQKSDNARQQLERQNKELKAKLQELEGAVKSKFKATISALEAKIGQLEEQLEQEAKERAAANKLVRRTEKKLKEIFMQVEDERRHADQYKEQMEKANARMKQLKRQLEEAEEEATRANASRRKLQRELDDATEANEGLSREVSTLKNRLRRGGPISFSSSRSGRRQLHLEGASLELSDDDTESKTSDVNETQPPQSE
T1 sequence (P35579 1722-1960): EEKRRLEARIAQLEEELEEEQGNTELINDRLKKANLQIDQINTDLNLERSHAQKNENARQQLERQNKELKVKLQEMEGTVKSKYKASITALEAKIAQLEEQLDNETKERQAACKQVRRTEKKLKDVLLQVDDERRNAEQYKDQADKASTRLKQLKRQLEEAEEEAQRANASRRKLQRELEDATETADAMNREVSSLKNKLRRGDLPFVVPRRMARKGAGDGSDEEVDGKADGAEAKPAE

SMILES	in vitro assembly vs DMSO control (human myosin IIA)	in vitro assembly vs DMSO control (human myosin IIB)	changes in myosin II cortical distribution (TIRF) (myosin II; 500 nM time course)	time to significant localization of GFP-myosin II (myosin II; 500 nM)	time for myosin II localization to revert to pre-treatment levels after removal (myosin II; 500 nM, washout)	increase in myosin II localization at the cortex by TIRF (myosin II; 500 nM, within 10 min)	subset of cells with BTFs accumulated into ribbon-like rings (myosin II; TIRF)	increase in myosin II at the cortex (myosin II; TIRF time course)	time for myosin II bipolar thick filaments to accumulate at the cortex (myosin II; TIRF time course)	time to steady state of myosin II cortical accumulation (myosin II; TIRF time course)	myosin II accumulation in cortexillin I deleted cells (myosin II; cortI::GFPmyo cells)	cortical enrichment of myosin II (cortex to cytoplasm) (myosin II; each degradation product tested)
Nc1ccc(Cl)c(Cl)c1 [3,4-DCA, 3,4-dichloroaniline]	unaffected	unaffected	Neither 3,4-DCA nor the urea result in changes in myosin II cortical distribution	–	–	–	–	–	–	–	–	–
CC(=O)c1ccc(O)cc1 [4-HAP, 4-hydroxyacetophenone]	unaffected	unaffected	–	≤ 10 min	≤ 15 min	2 fold	15%	2.5 fold	≤ 5 min	15 min	abolished	4-HAP alone drives myosin II relocalization
